Here are results for 3 compounds from patent US12162869B2, “Type II crystalline topramezone sodium salt hydrate, preparation method therefor and use thereof” (Rotam Agrochem International Company Limited, priority 2022, dated 2024).

The conditions of series [1]: aqueous preparation; reported in US 2010075853 A; cited from earlier work.
Series [2] in a line: Product performance comparison: storage of preparation samples at 54° C. for 2 weeks. It is filed as physicochemical. Conditions: stored at 54° C. for 2 weeks; characters before and after storage compared. The method, then: The preparation samples 1, 2, 3, 4, 5, 6, 7, 8, 9, 10, 11 and 12 prepared in Application examples 1-4 are stored at 54° C. for 2 weeks, respectively. The character changes of each sample before and after storage are compared.

The nature of series [3]: Heat storage experiment of the preparation product. Format: physicochemical. The method, then: In the preparation of solid preparations containing topramezone, the crystalline form I of the topramezone sodium salt can be better granulated compared with the anhydrous substance of the topramezone sodium salt. […] However, the preparation of type I topramezone sodium salt hydrate requires standing in water or a water-containing mixed solvent at −10° C.-15° C. for 10-48 h to complete the crystallization.

With `Cc1c(C(=O)c2cnn(C)c2[O-])ccc(S(C)(=O)=O)c1C1=NOCC1.[Na+]` [topramezone sodium salt], the “Activity compared with topramezone acid” value in series [1] is reported as “equivalent to or even higher than that of topramezone acid”. On to “type II crystalline topramezone sodium salt hydrate”, for which the Character changes result in series [2] was “stable after storage”. Turning to `Cc1c(C(=O)c2cnn(C)c2[O-])ccc(S(C)(=O)=O)c1C1=NOCC1.Cc1c(C(=O)c2cnn(C)c2[O-])ccc(S(C)(=O)=O)c1C1=NOCC1.O.O.O.O.O.[Na+].[Na+]` [type I topramezone sodium salt hydrate, 2.5 water topramezone sodium salt hydrate], the “Stability of the preparation in heat storage, compared with the preparation based on the anhydrous substance” value in series [3] is listed as “more stable”.
